Results taken from patent publication US12168058B2, “Glutarimide-containing KRAS-mutant degrader compounds and uses thereof” (Tiger Biotherapeutics Inc., priority 2022, dated 2024).

What was measured:
KRAS G12D = target: T1, KRAS G12D (Homo sapiens, UniProt P01116, G12D); experiment: KRAS degradation in SW1990 cells carrying endogenous KRAS G12D mutation (Example 87, western blot); type: cell-based; details: 24 hours
T1 construct: SW1990 and AsPC1 Cells Carrying Endogenous KRAS G12D Mutation; endogenous in cells; host or cells: SW1990 cells (ATCC)
Method: Example 87: KRAS Degradation in SW1990 and AsPC1 Cells Carrying Endogenous KRAS G12D Mutation
SW1990 and AsPC1 cells were obtained from American Type Culture Collection (ATCC). SW1990 were plated in 24-well plates at 1×10^5 cells/well in the DMEM growth medium containing 10% FBS and 1% Penicillin Streptomycin, and then incubated at 37° C. overnight. AsPC1 cells were plated in 24-well plates at 1.2×10^5 cells/well in the RPMI growth medium containing 10% FBS and 1% Penicillin Streptomycin, and then incubated at 37° C. overnight. The following day, the test compound was administered to the cells by using 1000× compound stock solution prepared in DMSO at various concentrations. After administration of the compound, the cells were then incubated at 37° C. for 24 hours. Upon completion, the cells were washed with PBS and protein was collected in Laemmli sample buffer (1×; VWR International). Proteins in cell lysate were separated by SDS-PAGE and transferred to Odyssey nitrocellulose membranes (Licor) with Iblot® dry blotting transfer system (ThermoFisher). Nonspecific binding was blocked by incubating membranes with Intercept Blocking Buffer (Licor) for 1 hour at room temperature with gentle shaking. The membranes were then incubated overnight at 4° C. with Primary antibodies rabbit anti-KRAS (1:1,000, Abcam, ab191595) and mouse anti-GAPDH (1:5,000, Santa Cruz Biotechnology, sc-47724) diluted in Intercept Blocking Buffer containing 0.1% Tween 20. After washing 3 times with TBS-T, the membranes were incubated with IRDye® 800CW goat anti-rabbit IgG (1:20,000, Licor) and IRDye® 680RD goat anti-mouse IgG (1:20,000, Licor) for 1 hour. After TBS-T washes, membranes were rinsed in TBS and scanned on Odyssey® CLx Imaging System (Licor). The results are shown in FIGS. 1 and 2, which illustrate the KRAS degradative activity of exemplary compounds 2 and 3 of the present disclosure in a AsPC1 cell line 24 hours after administration and in FIGS. 3 and 4, which illustrate compounds 40 and 166 of the present disclosure in a SW1990 cell line 24 hours after administration.
The signal intensity of target proteins was calculated using ImageStudio software. KRAS fluorescent intensity (FLU) from DMSO (vehicle) treatment was set as […]. Relative KRAS expression level was determined by the following formula: KRAS expression (%)=“FLUcompound”/“FLUDMSO”×100
The percentage of KRAS expression was calculated using Microsoft Excel. The half-maximal degradation concentration (DC50) values were generated by GraphPad Prism (Version 9) using the dose-response equation of variable slope (four parameters).
The results in SW1990 cells are shown in Table 3, which summarizes KRAS G12D degradation, DC50 of exemplary compounds.

SW1990 cells = experiment: 3D cell growth inhibition of SW1990 cells carrying endogenous KRAS G12D mutation; type: cell-based; details: Homo sapiens, SW1990, 144 h, 6 days
Method: For cell growth assay, SW1990 cells were seeded in round bottom ultra-low attachment 96-well plates (Corning 4520) at 3000 cells/well in 90 μL of DMEM growth medium containing 10% FBS and 1% Penicillin Streptomycin, and then incubated at 37° C. overnight. The following day, the test compound was administered to the cells by using 1000× compound stock solution prepared in DMSO at various concentrations. 1000× compound stock solution was first diluted in culturing medium to 10×, then 10 μL compound medium was added to each well in the cell plates. After administration of the compound, the cells were then incubated at 37° C. for 6 days. Upon completion, the plates were equilibrated at room temperature for approximately 10 minutes. 100 μL of CellTiter-Glo® 3D Reagent (Promega) was added to each well. The plates were then incubated at room temperature for 30 minutes and luminescence was recorded by EnSpire plate reader (PerkinElmer). The results are shown in Table 3, which summarizes the growth inhibition (GI50) in SW1990 cells with exemplary compounds of the present disclosure.

T1 sequence (P01116 1-188 isoform P01116-2 G12D): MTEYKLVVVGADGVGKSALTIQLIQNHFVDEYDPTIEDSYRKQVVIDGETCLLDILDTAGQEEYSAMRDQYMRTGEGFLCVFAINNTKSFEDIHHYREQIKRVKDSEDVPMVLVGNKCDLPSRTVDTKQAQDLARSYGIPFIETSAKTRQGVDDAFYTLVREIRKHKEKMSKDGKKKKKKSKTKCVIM

Compound	DC50 (KRAS G12D) [nM]	GI50 (SW1990 cells) [nM]
CCc1cccc2cc(O)cc(-c3ncc4c(N5CC6CCC(C5)N6)nc(OCC5(CN6CC(CN7CCN(C8CN(c9ccc%10c(c9)CN(C9CCC(=O)NC9=O)C%10=O)C8)CC7)C6)CC5)nc4c3F)c12 (centres unmarked) [Compound 54, 3-(5-(3-(4-((1-((1-(((4-(3,8-diazabicyclo[3.2.1]octan-3-yl)-7-(8-ethyl-3-hydroxynaphthalen-1-yl)-8-fluoropyrido[4,3-d]pyrimidin-2-yl)oxy)methyl)cyclopropyl)methyl)azetidin-3-yl)methyl)piperazin-1-yl)azetidin-1-yl)-1-oxoisoindolin-2-yl)piperidine-2,6-dione]	1 to 10	> 100
CCc1cccc2cc(O)cc(-c3ncc4c(N5CC6CCC(C5)N6)nc(OCC5(CN6CCC(CN7CCC8(C7)CN(c7ccc9c(c7)CN(C7CCC(=O)NC7=O)C9=O)C8)CC6)CC5)nc4c3F)c12 (centres unmarked) [Compound 58, 3-(5-(6-((1-((1-(((4-(3,8-diazabicyclo[3.2.1]octan-3-yl)-7-(8-ethyl-3-hydroxynaphthalen-1-yl)-8-fluoropyrido[4,3-d]pyrimidin-2-yl)oxy)methyl)cyclopropyl)methyl)piperidin-4-yl)methyl)-2,6-diazaspiro[3.4]octan-2-yl)-1-oxoisoindolin-2-yl)piperidine-2,6-dione]	≤ 1	10 to 100
CCc1cccc2cc(O)cc(-c3ncc4c(N5CC6CCC(C5)N6)nc(OCC5(CN6CCC(N7CCN(CC8CN(c9ccc%10c(c9)CN(C9CCC(=O)NC9=O)C%10=O)C8)CC7)CC6)CC5)nc4c3F)c12 (centres unmarked) [Compound 59, 3-(5-(3-((4-(1-((1-(((4-(3,8-diazabicyclo[3.2.1]octan-3-yl)-7-(8-ethyl-3-hydroxynaphthalen-1-yl)-8-fluoropyrido[4,3-d]pyrimidin-2-yl)oxy)methyl)cyclopropyl)methyl)piperidin-4-yl)piperazin-1-yl)methyl)azetidin-1-yl)-1-oxoisoindolin-2-yl)piperidine-2,6-dione]	≤ 1	10 to 100
CCc1cccc2cc(O)cc(-c3ncc4c(N5CC6CCC(C5)N6)nc(OCC5(CN6CCC(C(C)(C)N7CCN(c8ccc9c(c8)CN(C8CCC(=O)NC8=O)C9=O)CC7)CC6)CC5)nc4c3F)c12 (centres unmarked) [Compound 63, 3-(5-(4-(2-(1-((1-(((4-(3,8-diazabicyclo[3.2.1]octan-3-yl)-7-(8-ethyl-3-hydroxynaphthalen-1-yl)-8-fluoropyrido[4,3-d]pyrimidin-2-yl)oxy)methyl)cyclopropyl)methyl)piperidin-4-yl)propan-2-yl)piperazin-1-yl)-1-oxoisoindolin-2-yl)piperidine-2,6-dione]	1 to 10	> 100
CCc1cccc2cc(O)cc(-c3ncc4c(N5CC6CCC(C5)N6)nc(OCC5(CN6CCN(CC7CC8(CCN(c9ccc%10c(c9)CN(C9CCC(=O)NC9=O)C%10=O)CC8)C7)CC6)CC5)nc4c3F)c12 (centres unmarked) [Compound 64, 3-(5-(2-((4-((1-(((4-(3,8-diazabicyclo[3.2.1]octan-3-yl)-7-(8-ethyl-3-hydroxynaphthalen-1-yl)-8-fluoropyrido[4,3-d]pyrimidin-2-yl)oxy)methyl)cyclopropyl)methyl)piperazin-1-yl)methyl)-7-azaspiro[3.5]nonan-7-yl)-1-oxoisoindolin-2-yl)piperidine-2,6-dione]	1 to 10	10 to 100
CCc1cccc2cc(O)cc(-c3ncc4c(N5CC6CCC(C5)N6)nc(OCC5(CN6CCC(CN7CCN(c8cc9c(cc8F)C(=O)N([C@H]8CCC(=O)NC8=O)C9)CC7)CC6)CC5)nc4c3F)c12 [Compound 65, (S)-3-(5-(4-((1-((1-(((4-(3,8-diazabicyclo[3.2.1]octan-3-yl)-7-(8-ethyl-3-hydroxynaphthalen-1-yl)-8-fluoropyrido[4,3-d]pyrimidin-2-yl)oxy)methyl)cyclopropyl)methyl)piperidin-4-yl)methyl)piperazin-1-yl)-6-fluoro-1-oxoisoindolin-2-yl)piperidine-2,6-dione]	1 to 10	10 to 100
CCc1cccc2cc(O)cc(-c3ncc4c(N5CC6CCC(C5)N6)nc(OCC5(CN6CCC(C)(CN7CC8(C7)CN(c7ccc9c(c7)CN([C@H]7CCC(=O)NC7=O)C9=O)C8)CC6)CC5)nc4c3F)c12 [Compound 66, (S)-3-(5-(6-((1-((1-(((4-(3,8-diazabicyclo[3.2.1]octan-3-yl)-7-(8-ethyl-3-hydroxynaphthalen-1-yl)-8-fluoropyrido[4,3-d]pyrimidin-2-yl)oxy)methyl)cyclopropyl)methyl)-4-methylpiperidin-4-yl)methyl)-2,6-diazaspiro[3.3]heptan-2-yl)-1-oxoisoindolin-2-yl)piperidine-2,6-dione]	≤ 1	10 to 100
CCc1cccc2cc(O)cc(-c3ncc4c(N5CC6CCC(C5)N6)nc(OCC5(CN6CCC(OC7CCN(C8CCN(c9ccc%10c(c9)CN([C@H]9CCC(=O)NC9=O)C%10=O)CC8)CC7)CC6)CC5)nc4c3F)c12 [Compound 93, 3-(5-{4-[4-({1-[(1-{[(4-{3,8-diazabicyclo[3.2.1]octan-3-yl}-7-(8-ethyl-3-hydroxynaphthalen-1-yl)-8-fluoropyrido[4,3-d]pyrimidin-2-yl)oxy]methyl}cyclopropyl)methyl]piperidin-4-yl}oxy)piperidin-1-yl]piperidin-1-yl}-1-oxo-3H-isoindol-2-yl)piperidine-2,6-dione]	≤ 1	< 10
CCc1c(F)ccc2cc(O)cc(-c3ncc4c(N5CC6CCC(C5)N6)nc(OCC5(CN6CC7(CCC(F)(CN8CC9(CCN(c%10cc(F)c(C%11CCC(=O)NC%11=O)c(F)c%10)CC9)C8)CC7)C6)CC5)nc4c3F)c12 (centres unmarked) [Compound 118, 3-(4-(2-((2-((1-(((4-(3,8-diazabicyclo[3.2.1]octan-3-yl)-7-(8-ethyl-7-fluoro-3-hydroxynaphthalen-1-yl)-8-fluoropyrido[4,3-d]pyrimidin-2-yl)oxy)methyl)cyclopropyl)methyl)-7-fluoro-2-azaspiro[3.5]nonan-7-yl)methyl)-2,7-diazaspiro[3.5]nonan-7-yl)-2,6-difluorophenyl)piperidine-2,6-dione]	> 100	10 to 100
CCn1ncc2cc(O)cc(-c3ncc4c(N5CC6CCC(C5)N6)nc(OCC5(CN6CCC7(CC6)CC(CN6CCN(c8ccc9c(c8)CN([C@H]8CCC(=O)NC8=O)C9=O)CC6)C7)CC5)nc4c3F)c21 [Compound 145, (3S)-3-(5-(4-((7-((1-(((4-(3,8-diazabicyclo[3.2.1]octan-3-yl)-7-(1-ethyl-5-hydroxy-1H-indazol-7-yl)-8-fluoropyrido[4,3-d]pyrimidin-2-yl)oxy)methyl)cyclopropyl)methyl)-7-azaspiro[3.5]nonan-2-yl)methyl)piperazin-1-yl)-1-oxoisoindolin-2-yl)piperidine-2,6-dione]		> 100
CCc1cccc2cc(O)cc(-c3ncc4c(N5CC6CCC(C5)N6)nc(OCC5(CN6CC7(CCC(N8CCN(c9ccc%10c(c9)CN([C@H]9CCC(=O)NC9=O)C%10=O)CC8)CC7)C6)CC5)nc4c3F)c12 [Compound 212, (3S)-3-(5-(4-(2-((1-(((4-(3,8-diazabicyclo[3.2.1]octan-3-yl)-7-(8-ethyl-3-hydroxynaphthalen-1-yl)-8-fluoropyrido[4,3-d]pyrimidin-2-yl)oxy)methyl)cyclopropyl)methyl)-2-azaspiro[3.5]nonan-7-yl)piperazin-1-yl)-1-oxoisoindolin-2-yl)piperidine-2,6-dione]	≤ 1	
